The results in this text go back to patent US11891362B1, “N2,N4-disubstituted pyrimidine-2,4-diamine compounds as antibacterial agents” (KING FAISAL UNIVERSITY, priority 2023, dated 2024).

For assay [1], the system named is Bacillus subtilis MTCC 441. Nature of the assay: In vitro antibacterial activity, dilution susceptibility test (CLSI M07-A10). Particulars: MTCC441. In kind it is cell-based. The text has this:
(§1) Enterococcus faecium resistant to VRE, and Gram-negative organisms including Klebsiella pneumonia, Escherichia coli, Pseudomonas aeruginosa.

Assay [2] relates to Enterococcus faecium ATCC 35667. Described as above. In kind it is cell-based. The note with it: ATCC35667.
Source text: as §1

Assay [3] deals with Enterococcus faecium ATCC 51559 (VRE resistant). Described as above. Type of assay: cell-based.
Source text: as §1

Assay [4] concerns Escherichia coli MTCC 443. The assay is described as above. Type of assay: cell-based. The note with it: MTCC443.
Source text: as §1

The subject of assay [5] is Klebsiella pneumonia MTCC 618. Described as above. Type of assay: cell-based. Particulars: Klebsiella pneumoniae, MTCC618.
Source text: as §1

In assay [6] the test system is Pseudomonas aeruginosa MTCC 741. The assay is described as above. In kind it is cell-based. Particulars: MTCC741.
Source text: as §1

Assay [7] has as its system Staphylococcus aureus ATCC 29213. The assay is described as above. In kind it is cell-based. Particulars: ATCC29213.
Source text: as §1

The subject of assay [8] is Staphylococcus aureus ATCC BAA-1556 (MERSA resistant). The description is as above. In kind it is cell-based. The note with it: ATCCBAA1556.
Source text: as §1

The subject of assay [9] is Staphylococcus epidermidis. The description is as above. Type of assay: cell-based.
Source text: as §1

Assay [10] has as its system Mycobacterium tuberculosis H37Rv strain. Description: Anti-tubercular properties, alamar blue microplate assay. Type of assay: cell-based. The note with it: 168 h, seven days incubation, read-out: anti-mycobacterial activity (MIC).
For the next assay, the target named is T1, DNA gyrase from E. coli (Escherichia coli, UniProt P0AES4+P0AES6).
T1 construct: purchased Inspiralis
Nature of the assay: Inhibitory activities on E. coli DNA gyrase (Inspiralis assay). Type of assay: biochemical. As for the experimental part: First, the plates were rehydrated with buffer (20 mM Tris-HCl with pH 7.6, 0.01% w/v BSA, 0.05% v/v Tween 20, 137 mM NaCl) and the biotinylated oligonucleotide was then immobilized. After washing off the unbound oligonucleotide, the enzyme test was performed. The reaction volume of 30 μL in buffer (35 mM Tris×HCl with pH 7.5, 4 mM MgCl2, 24 mM KCl, 2 mM DTT, 1.8 mM spermidine, 1 mM ATP, 6.5% w/v glycerol, 0.1 mg/mL albumin) contained 1.5 U of DNA gyrase from E. coli, 0.75 μg of relaxed pNO1 plasmid, and 3 μL solution of the inhibitor in 10% DMSO and 0.008% Tween 20. Reaction solutions were incubated at 37° C. for 30 min. After that, the TF buffer (50 mM NaOAc with pH 5.0, 50 mM NaCl and 50 mM MgCl2) was added to terminate the enzymatic reaction. After additional incubation for 30 min at rt, during which biotinoligonucleotide-plasmid triplex was formed, the unbound plasmid was washed off using TF buffer and SybrGOLD in T10 buffer (10 mM Tris HCl with pH 8.0 and 1 mM EDTA) was added. The fluorescence was measured with a microplate reader (BioTek Synergy H4, excitation: 485 nm, emission: 535 nm). Initial screening was done at 100 or 10 μM concentration of inhibitors. […] GraphPad Prism software was used to calculate the IC50 values. The result is given as the average value of three independent measurements.

Each structure is given as a SMILES string. ≈ marks a conversion by molar mass, not a printed value. Where two headings read alike, the source gives them in different places.

T1 sequence (P0AES4 whole entry, one chain of several): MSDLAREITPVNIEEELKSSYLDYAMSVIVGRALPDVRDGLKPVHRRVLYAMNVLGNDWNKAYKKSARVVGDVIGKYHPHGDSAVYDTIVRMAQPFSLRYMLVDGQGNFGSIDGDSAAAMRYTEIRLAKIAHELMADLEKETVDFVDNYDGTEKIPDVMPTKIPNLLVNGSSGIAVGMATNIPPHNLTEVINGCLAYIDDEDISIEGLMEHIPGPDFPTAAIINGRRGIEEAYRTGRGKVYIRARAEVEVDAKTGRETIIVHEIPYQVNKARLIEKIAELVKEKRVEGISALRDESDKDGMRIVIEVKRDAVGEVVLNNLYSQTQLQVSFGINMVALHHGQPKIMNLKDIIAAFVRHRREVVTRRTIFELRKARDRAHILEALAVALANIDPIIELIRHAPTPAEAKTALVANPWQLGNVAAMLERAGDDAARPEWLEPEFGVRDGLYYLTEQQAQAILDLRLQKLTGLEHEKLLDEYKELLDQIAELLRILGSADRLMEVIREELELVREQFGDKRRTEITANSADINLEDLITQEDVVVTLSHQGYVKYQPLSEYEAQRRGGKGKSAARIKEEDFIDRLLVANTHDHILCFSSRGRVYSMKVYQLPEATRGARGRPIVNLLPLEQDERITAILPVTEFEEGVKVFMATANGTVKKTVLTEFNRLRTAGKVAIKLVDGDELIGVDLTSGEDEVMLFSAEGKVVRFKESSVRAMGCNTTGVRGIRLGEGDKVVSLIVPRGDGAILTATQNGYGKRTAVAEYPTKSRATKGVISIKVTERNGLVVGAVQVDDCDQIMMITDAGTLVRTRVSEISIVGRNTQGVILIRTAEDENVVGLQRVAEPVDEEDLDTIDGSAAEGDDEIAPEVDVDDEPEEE

In general, MIC refers to the lowest concentration that inhibits growth of the organism. For orientation: IC50 means the midpoint of a concentration-inhibition curve. On to `CC(=O)Nc1cccc(Nc2nccc(Nc3ccc(C(=O)O)cc3CN(C)C3CCCCC3)n2)c1` [Compound 7, 4-((2-((3-acetamidophenyl)amino)pyrimidin-4-yl)amino)-3-((cyclohexyl(methyl)amino)methyl)benzoic acid], for which the MIC was 4 µg/mL (≈ 8.19 µM) in [1]; 4 µg/mL (≈ 8.19 µM) in assay [2]; 16 µg/mL (≈ 32.7 µM) in assay [3]; 8 µg/mL (≈ 16.4 µM) in assay [4]; 4 µg/mL (≈ 8.19 µM) in assay [5] (Klebsiella pneumonia MTCC 618, read-out: MIC); 4 µg/mL (≈ 8.19 µM) in assay [6] (Pseudomonas aeruginosa MTCC 741, read-out: MIC). Further, the MIC in assay [7] came out at 8 µg/mL (≈ 16.4 µM); in [8], 8 µg/mL (≈ 16.4 µM); in assay [9], 8 µg/mL (≈ 16.4 µM); in assay [10], 16 µg/mL (≈ 32.7 µM). The IC50 at DNA gyrase from E. coli was determined as 250 nM.

As for `CN[C@H](CC(C)C)C(=O)N[C@H]1C(=O)N[C@@H](CC(N)=O)C(=O)N[C@H]2C(=O)N[C@H]3C(=O)N[C@H](C(=O)N[C@H](C(=O)O)c4cc(O)cc(O)c4-c4cc3ccc4O)[C@H](O)c3ccc(c(Cl)c3)Oc3cc2cc(c3O[C@@H]2O[C@H](CO)[C@@H](O)[C@H](O)[C@H]2O[C@H]2C[C@](C)(N)[C@H](O)[C@H](C)O2)Oc2ccc(cc2Cl)[C@H]1O` [Vancomycin, reference compound], the minimal inhibitory concentration (MIC) in [5] and in assay [6] (Pseudomonas aeruginosa) was > 128 µg/mL in each case.
